Measurements as given in paper PMC7614387 (Chemical communications (Cambridge, England), 2021).

Target: T1, LptH (Pseudomonas aeruginosa, UniProt Q9HVV7)
T1 sequence (Q9HVV7 25-175): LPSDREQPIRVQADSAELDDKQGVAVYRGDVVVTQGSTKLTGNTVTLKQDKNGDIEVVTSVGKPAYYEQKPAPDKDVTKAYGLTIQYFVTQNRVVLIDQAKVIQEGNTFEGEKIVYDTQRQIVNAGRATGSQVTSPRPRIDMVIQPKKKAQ
Assay: native mass spectrometry
Format: biochemical, P. aeruginosa
Conditions: for Emax (in words): comparison within 2a derivatives

## COC(=O)CCCNC(=O)c1ccc(O)c2ncccc12 [2c]
nMS
  Emax (in words): highest Emax values of the series

## Clc1cc2c(c3ncccc13)OCN(CCc1ccccc1)C2 [1a]
pH 8, read-out: Emax, maximum achievable monomer mole fraction
  Emax: 73 ± 2%

## COCOc1ccc(C(=O)NCCCC(=O)OC)c2cccnc12 [2e]
nMS
  Emax (in words): highest Emax values of the series

## O=C(O)c1ccc(O)c2ncccc12 [2a, 5-carboxy-8-hydroxyquinoline]
100 μM compound, nMS
  increase in the monomer mole fraction (in words): minimal increase
